Reference: patent US20090209525A1, “ENABLING METHODS TO IDENTIFY ALLOSTERIC MODULATORS OF RECEPTOR ACTIVITY” (priority 2006, published 2009)
Substitutions are numbered along the chain they refer to.

Assays:
Type in all cases: cell-based
[1] = target: T1, rat M1 wild-type receptors (Rattus norvegicus, UniProt P08482); test: Phosphatidyl inositol hydrolysis assay, wild-type; conditions: for Shift: EC50 divided by EC50 wild-type (reference)
T1 construct: expressed in transfected cells
T1 sequence (P08482 1-460): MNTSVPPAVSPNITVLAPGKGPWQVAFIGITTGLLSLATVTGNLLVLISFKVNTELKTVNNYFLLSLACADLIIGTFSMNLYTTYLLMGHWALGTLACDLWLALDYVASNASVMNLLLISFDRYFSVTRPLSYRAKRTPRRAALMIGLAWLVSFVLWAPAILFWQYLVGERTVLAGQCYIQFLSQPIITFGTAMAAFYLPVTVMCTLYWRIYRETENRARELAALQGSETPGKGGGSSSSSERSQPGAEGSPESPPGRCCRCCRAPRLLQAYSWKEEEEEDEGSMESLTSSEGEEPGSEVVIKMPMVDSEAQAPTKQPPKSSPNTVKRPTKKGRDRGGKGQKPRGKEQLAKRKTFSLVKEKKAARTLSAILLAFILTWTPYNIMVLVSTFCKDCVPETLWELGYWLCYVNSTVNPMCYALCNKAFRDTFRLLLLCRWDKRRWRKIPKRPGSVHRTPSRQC

[2] = target: T2, rat M1 W101A receptor (Rattus norvegicus, UniProt P08482, W101A); test: Phosphatidyl inositol hydrolysis assay, W101A; conditions: Table 6; for Shift: EC50 W101A divided by EC50 wild-type; for EC50 / Eff (%): PI hydrolysis, W101A; for Eff (%): relative to wild-type response to that ligand (clozapine: title says fold-response)
T2 construct: expressed in transfected cells
T2 sequence (P08482 1-460 W101A): T1 sequence (P08482 1-460) with W101A

[3] = target: T3, rat M1 S109A receptor (Rattus norvegicus, UniProt P08482, S109A); test: Phosphatidyl inositol hydrolysis assay, S109A; conditions: Table 6; for Shift: EC50 S109A divided by EC50 wild-type; for EC50 / Eff (%): PI hydrolysis, S109A; for Eff (%): relative to wild-type response to that ligand
T3 construct: expressed in transfected cells
T3 sequence (P08482 1-460 S109A): T1 sequence (P08482 1-460) with S109A

[4] = Table 5, PI hydrolysis, maximum response relative to carbachol
[5] = Table 6, PI hydrolysis, M1 WT, maximum response, normalized

| SMILES | Eff (%) [1, 4] [%] | EC50 ([1]; Table 5, PI hydrolysis, wild-type) [µM] | Shift ([1]; Table 6) | pEC50 ([1]; Table 6, PI hydrolysis, M1 WT) | Eff (%) [1, 5] [%] | Shift [2] | EC50 [2] [µM] | Eff (%) [2] [%] | Shift [3] | EC50 [3] [µM] | Eff (%) [3] [%] | EC50 ([1]; Table 6, PI hydrolysis, M1 WT) [µM] |
| --- | --- | --- | --- | --- | --- | --- | --- | --- | --- | --- | --- | --- |
| CCCCC1CCN(CCCN2C(=O)COc3cc(F)ccc32)CC1 [AC-260584, 4-[3-(4-Butyl-piperidin-1-yl)-propyl]-7-fluoro-4H-benzo [1,4]oxazin-3-one] | 99 ± 20 | 0.0501 | 1 | 7.3 ± 0.1 | 100 ± 7 | 0.03 | 0.00158 | 112 ± 6 | 1 | 0.0794 | 85 ± 11 | – |
| Clc1ccc2c(c1)N=C(N1CCNCC1)c1ccccc1N2 [NDMC, 8-chloro-11-(1-piperazinyl)-5H-dibenzo [b,e] [1,4] diazepine] | 44 ± 17 | – | 1 | – | 55 ± 8 | 6 | 0.316 | 54 ± 11 | 4 | 0.2 | 47 ± 17 | 0.1 |
